Experimental data taken from paper PMC4686831, “Identification of an allosteric binding site for RORγt inhibition” (Nature Communications, 2015).
Where two headings read alike, the source gives them in different places. One block for each compound: values may come before it.

Columns and labels:
[1] = tested on: Human mesenchymal stem cells (MSCs); experiment: Adipogenesis of human mesenchymal stem cells (PPARγ dependent); conditions: read-out: IC50, inhibition of adipogenesis
[2] = tested on: adiponectin gene expression; experiment: Adiponectin gene expression in MSCs; conditions: read-out: IC50, inhibition of adiponectin gene expression
[3] = biological target: T1, human RORγt LBD (Homo sapiens, UniProt P51449); experiment: HTRF / TR-FRET cofactor peptide recruitment assay; type: biochemical; conditions: Fig. 2a
T1 construct: The human RORγt LBD used for the HTRF assay; made in house; host or cells: Escherichia coli BL21(DE3)
Protocol: The human RORγt LBD used for the HTRF assay was expressed as a His6-tag fusion protein from the pET15b expression vector in Escherichia coli BL21(DE3) cells. Cells transformed with this vector were grown in 2 × YT medium supplemented with ampicillin until an OD600=0.7 was reached. Protein expression was then induced with 0.1 mM isopropyl-b-d-thiogalactoside (IPTG). After incubation for 16 h at 16 °C, cell cultures were collected by centrifugation. The cells were lysed via sonication and the protein was purified via Ni^2+-affinity column chromatography.
The homogeneous TR-FRET assays were performed in triplicate with 20 nM His6-RORγt and 100 nM biotin labelled cofactor peptide. […] Assay buffer contained 100 mM HEPES (pH 7.5), 100 mM NaCl, 5 mM dithiothreitol (DTT) and 0.1% bovine serum albumin. The plates (white 384-well plates Greiner Bio-One) were incubated for 2 h at 4 °C before the FRET ratio was measured in a Tecan Infinite F500 plate reader. The data were analysed using Origin software.

[4] = biological target: MR (Homo sapiens, UniProt P08235); experiment: Receptor reporter assay selectivity panel: MR
Protocol: (§1) * Receptor Reporter Assay Selectivity Panel- Assays were performed by Indigo Bioscience (State
(§2) College, PA) according to their established protocols. The AR, ER, GR, MR, and PR assays utilize full
(§3) length receptor constructs whereas all others are chimeric with the GAL4 DNA binding domain.

[5] = biological target: RXRg (Homo sapiens, UniProt P48443); experiment: Receptor reporter assay selectivity panel: RXRg
Protocol: as §1, §2, §3

[6] = biological target: RXRb (Homo sapiens, UniProt P28702); experiment: Receptor reporter assay selectivity panel: RXRb
Protocol: as §1, §2, §3

[7] = biological target: RARa (Homo sapiens, UniProt P10276); experiment: Receptor reporter assay selectivity panel: RARa
Protocol: as §1, §2, §3

[8] = biological target: PPARd (Homo sapiens, UniProt Q03181); experiment: Receptor reporter assay selectivity panel: PPARd
Protocol: as §1, §2, §3

[9] = biological target: ERa (Homo sapiens, UniProt P03372); experiment: Receptor reporter assay selectivity panel: ERa
Protocol: as §1, §2, §3

[10] = biological target: LXRb (Homo sapiens, UniProt P55055); experiment: Receptor reporter assay selectivity panel: LXRb
Protocol: as §1, §2, §3

[11] = biological target: RXRa (Homo sapiens, UniProt P19793); experiment: Receptor reporter assay selectivity panel: RXRa
Protocol: as §1, §2, §3

[12] = biological target: LXRa (Homo sapiens, UniProt Q13133); experiment: Receptor reporter assay selectivity panel: LXRa
Protocol: as §1, §2, §3

[13] = biological target: AhR (Homo sapiens, UniProt P35869); experiment: Receptor reporter assay selectivity panel: AhR
Protocol: as §1, §2, §3

[14] = biological target: GR (Homo sapiens, UniProt P04150); experiment: Receptor reporter assay selectivity panel: GR
Protocol: as §1, §2, §3

[15] = biological target: PR (Homo sapiens, UniProt P06401); experiment: Receptor reporter assay selectivity panel: PR
Protocol: as §1, §2, §3

[16] = biological target: PPARa (Homo sapiens, UniProt Q07869); experiment: Receptor reporter assay selectivity panel: PPARa
Protocol: as §1, §2, §3

[17] = tested on: CD36 and FABP4 gene expression in MSCs; design: dose or concentration left out as unconfirmed; conditions: MRL-299, data not shown
[18] = biological target: PPARg (Homo sapiens, UniProt P37231); experiment: Receptor reporter assay selectivity panel: PPARg
Protocol: as §1, §2, §3

[19] = biological target: ERb (Homo sapiens, UniProt Q92731); experiment: Receptor reporter assay selectivity panel: ERb
Protocol: as §1, §2, §3

[20] = biological target: FXR (Homo sapiens, UniProt Q96RI1); experiment: Receptor reporter assay selectivity panel: FXR
Protocol: as §1, §2, §3

[21] = biological target: TRa (Homo sapiens, UniProt P10827); experiment: Receptor reporter assay selectivity panel: TRa
Protocol: as §1, §2, §3

[22] = biological target: CAR2 (Homo sapiens, UniProt Q14994); experiment: Receptor reporter assay selectivity panel: CAR2
Protocol: as §1, §2, §3

[23] = biological target: CAR1 (Homo sapiens, UniProt Q14994); experiment: Receptor reporter assay selectivity panel: CAR1
Protocol: as §1, §2, §3

[24] = biological target: T2, RARg (Homo sapiens, UniProt P13631); experiment: Receptor reporter assay selectivity panel: RARg
T2 sequence (P13631 185-419 limits assumed): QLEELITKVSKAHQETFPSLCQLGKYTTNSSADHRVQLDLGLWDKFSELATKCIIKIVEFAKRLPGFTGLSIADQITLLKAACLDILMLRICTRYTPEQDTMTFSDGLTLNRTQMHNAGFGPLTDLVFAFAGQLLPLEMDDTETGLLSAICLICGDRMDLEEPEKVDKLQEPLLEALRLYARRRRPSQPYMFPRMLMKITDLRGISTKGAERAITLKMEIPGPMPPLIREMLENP
Protocol: as §1, §2, §3

[25] = biological target: CAR3 (Homo sapiens, UniProt Q14994); experiment: Receptor reporter assay selectivity panel: CAR3
Protocol: as §1, §2, §3

[26] = biological target: VDR (Homo sapiens, UniProt P11473); experiment: Receptor reporter assay selectivity panel: VDR
Protocol: as §1, §2, §3

[27] = biological target: TRb (Homo sapiens, UniProt P10828); experiment: Receptor reporter assay selectivity panel: TRb
Protocol: as §1, §2, §3

[28] = biological target: AR (Homo sapiens, UniProt P10275); experiment: Receptor reporter assay selectivity panel (Indigo Bioscience): AR
Protocol: as §1, §2, §3

[29] = biological target: T3, PXR (Homo sapiens, UniProt O75469); experiment: Receptor reporter assay selectivity panel: PXR
T3 sequence (O75469 146-434 limits assumed): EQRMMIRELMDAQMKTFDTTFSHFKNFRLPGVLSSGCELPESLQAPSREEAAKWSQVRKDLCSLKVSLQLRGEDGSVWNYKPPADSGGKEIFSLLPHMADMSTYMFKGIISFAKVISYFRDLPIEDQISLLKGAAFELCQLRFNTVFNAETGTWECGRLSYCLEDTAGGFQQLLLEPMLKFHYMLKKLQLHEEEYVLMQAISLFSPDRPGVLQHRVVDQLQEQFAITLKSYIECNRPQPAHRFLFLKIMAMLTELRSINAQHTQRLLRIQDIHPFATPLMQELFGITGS
Protocol: as §1, §2, §3

[30] = biological target: RARb (Homo sapiens, UniProt P10826); experiment: Receptor reporter assay selectivity panel: RARb
Protocol: as §1, §2, §3

[31] = tested on: IL-17 production in human PBMCs; experiment: PBMC Th17 polarization and IL-17 production assay; type: cell-based; conditions: 96 h, 4 days, mean±s.d., read-out: hPBMC IL17A IC50
Protocol: Test compounds were prepared as 10 mM stocks in DMSO and serially diluted 1:3 to provide an eight-concentration titration. […] Stimulatory cytokines were added to final concentrations of 25 ng ml^−1 IL-1B, 10 ng ml^−1 IL-23, 0.5 ng ml^−1 IL-2 and 10 ng ml^−1 IL-6 (all cytokines from R&D Systems). In addition, T-Activator CD3/28 Dynabeads (Invitrogen) were added to a concentration of 100,000 beads per ml. The stimulated cells were immediately dispensed into the assay plate containing serially diluted compound at a volume of 200 μl cells per well. Cell plates were then incubated at 37 °C and 5% CO2 for 4 days. Culture media (100 μl) was collected from each well and IL-17 expression was measured by enzyme-linked immunosorbent assay (R&D Systems) according to the manufacturer's instructions. Cell viability was assessed by the addition of 100 μl of CellTiter-Glo (Promega) to each well of the cell assay plate followed by luminescence detection on an Envision plate reader (PerkinElmer).

[32] = tested on: IL17a mRNA expression in EL4 cells; experiment: Quantitative IL17a RT-PCR in EL4 cells; type: cell-based, mouse; conditions: 10 μM, 24 h, vs DMSO, normalized to GAPDH
Protocol: EL4 cells (Sigma-Aldrich) were grown in DMEM (Gibco). At 24 h after the cells were seeded onto a 12-well plate, the cells were treated with ligands 1–3 (from 10 mM stock in DMSO) or DMSO. After 24 h, the cells were collected and RNA was isolated using a RNeasy Plus Micro Kit (Qiagen) and reverse transcribed using the iScrip cDNA biosynthesis kit (Bio-Rad). Quantitative RT–PCR was performed to analyse mRNA levels of mouse IL17a levels using SYBR green technology (Bio-Rad) on a CFX Real-Time System (Bio-Rad). Primer sequences used for IL17a:[45] Fw: 5′-[…]-3′, Rev: 5′-[…]-3′ and Gapdh: Fw: 5′-[…]-3′, Rev: 5′-[…]-3′. The level of IL17a mRNA expression was normalized to that of Gapdh expression. All data are expressed as the mean±s.e.m. (n=6). Statistical analysis was performed using an one-way analysis of variance comparing against the DMSO control following Dunnett post hoc test.

Sequence of PPARg (P37231 232-505 limits assumed): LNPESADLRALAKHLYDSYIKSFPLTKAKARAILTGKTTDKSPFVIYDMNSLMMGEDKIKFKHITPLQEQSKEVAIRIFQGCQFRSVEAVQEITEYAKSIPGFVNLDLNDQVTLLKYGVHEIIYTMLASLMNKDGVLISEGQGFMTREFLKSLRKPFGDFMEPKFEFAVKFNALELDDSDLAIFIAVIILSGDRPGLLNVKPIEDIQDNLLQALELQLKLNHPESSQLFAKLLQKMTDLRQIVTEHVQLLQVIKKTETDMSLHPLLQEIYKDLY
Sequence of LXRb (P55055 222-460 limits assumed): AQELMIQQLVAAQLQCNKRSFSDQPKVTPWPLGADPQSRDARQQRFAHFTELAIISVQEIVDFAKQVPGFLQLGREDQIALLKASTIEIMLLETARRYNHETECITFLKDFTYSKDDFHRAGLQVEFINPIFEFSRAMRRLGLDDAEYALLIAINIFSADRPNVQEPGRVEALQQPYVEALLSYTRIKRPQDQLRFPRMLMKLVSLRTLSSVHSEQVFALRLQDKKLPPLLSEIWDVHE
Sequence of LXRa (Q13133 209-447 limits assumed): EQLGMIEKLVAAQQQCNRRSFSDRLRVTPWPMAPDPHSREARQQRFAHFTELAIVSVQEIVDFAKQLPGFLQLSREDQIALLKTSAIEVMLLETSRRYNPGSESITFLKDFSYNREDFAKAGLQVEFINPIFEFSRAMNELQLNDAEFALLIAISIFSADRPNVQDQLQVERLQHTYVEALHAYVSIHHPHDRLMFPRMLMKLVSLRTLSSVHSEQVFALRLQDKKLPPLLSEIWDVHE
Sequence of ERb (Q92731 whole entry): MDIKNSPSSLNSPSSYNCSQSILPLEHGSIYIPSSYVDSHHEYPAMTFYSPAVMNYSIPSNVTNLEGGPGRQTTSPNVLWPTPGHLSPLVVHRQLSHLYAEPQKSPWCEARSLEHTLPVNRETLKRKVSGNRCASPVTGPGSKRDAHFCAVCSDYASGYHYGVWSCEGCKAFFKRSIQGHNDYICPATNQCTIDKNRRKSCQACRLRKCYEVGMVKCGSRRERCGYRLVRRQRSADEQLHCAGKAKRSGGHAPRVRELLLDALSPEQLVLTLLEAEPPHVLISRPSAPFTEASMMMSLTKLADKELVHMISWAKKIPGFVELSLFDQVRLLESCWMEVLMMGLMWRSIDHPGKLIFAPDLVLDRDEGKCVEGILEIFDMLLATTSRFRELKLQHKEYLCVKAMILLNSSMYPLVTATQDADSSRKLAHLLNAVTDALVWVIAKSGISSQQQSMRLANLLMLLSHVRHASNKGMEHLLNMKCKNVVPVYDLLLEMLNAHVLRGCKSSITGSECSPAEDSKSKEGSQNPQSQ
Sequence of TRa (P10827 163-410 isoform P10827-2 limits assumed): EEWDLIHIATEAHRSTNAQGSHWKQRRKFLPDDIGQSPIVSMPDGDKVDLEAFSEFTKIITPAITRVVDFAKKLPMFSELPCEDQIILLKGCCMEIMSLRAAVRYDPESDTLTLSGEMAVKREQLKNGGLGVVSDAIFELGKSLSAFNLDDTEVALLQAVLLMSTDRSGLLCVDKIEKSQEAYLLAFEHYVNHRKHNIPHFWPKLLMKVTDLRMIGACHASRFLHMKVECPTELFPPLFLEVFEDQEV
Sequence of PR (P06401 whole entry): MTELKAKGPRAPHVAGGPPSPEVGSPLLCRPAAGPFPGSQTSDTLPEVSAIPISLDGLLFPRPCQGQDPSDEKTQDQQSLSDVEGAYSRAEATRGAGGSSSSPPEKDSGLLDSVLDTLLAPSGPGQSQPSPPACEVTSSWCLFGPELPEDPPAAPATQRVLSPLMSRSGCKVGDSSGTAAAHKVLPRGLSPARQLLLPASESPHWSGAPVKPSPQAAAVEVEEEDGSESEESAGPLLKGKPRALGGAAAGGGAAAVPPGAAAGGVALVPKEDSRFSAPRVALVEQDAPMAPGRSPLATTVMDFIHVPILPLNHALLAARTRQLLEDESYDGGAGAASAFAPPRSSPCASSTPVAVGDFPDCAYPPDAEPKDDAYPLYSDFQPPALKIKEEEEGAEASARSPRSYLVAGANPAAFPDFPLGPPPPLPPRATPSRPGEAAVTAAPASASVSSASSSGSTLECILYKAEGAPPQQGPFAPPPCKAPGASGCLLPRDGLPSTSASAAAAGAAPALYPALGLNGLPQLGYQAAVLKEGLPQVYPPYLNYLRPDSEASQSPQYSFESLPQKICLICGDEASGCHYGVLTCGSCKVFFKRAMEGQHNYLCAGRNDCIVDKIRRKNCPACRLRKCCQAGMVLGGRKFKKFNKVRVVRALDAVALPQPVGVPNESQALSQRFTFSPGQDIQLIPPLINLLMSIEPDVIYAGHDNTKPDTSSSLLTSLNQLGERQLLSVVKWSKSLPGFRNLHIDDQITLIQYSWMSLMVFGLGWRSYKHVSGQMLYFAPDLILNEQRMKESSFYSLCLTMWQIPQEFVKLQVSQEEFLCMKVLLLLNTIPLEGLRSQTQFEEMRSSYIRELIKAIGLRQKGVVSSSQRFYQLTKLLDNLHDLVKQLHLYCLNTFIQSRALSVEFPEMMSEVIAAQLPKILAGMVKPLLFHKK
Sequence of ERa (P03372 whole entry): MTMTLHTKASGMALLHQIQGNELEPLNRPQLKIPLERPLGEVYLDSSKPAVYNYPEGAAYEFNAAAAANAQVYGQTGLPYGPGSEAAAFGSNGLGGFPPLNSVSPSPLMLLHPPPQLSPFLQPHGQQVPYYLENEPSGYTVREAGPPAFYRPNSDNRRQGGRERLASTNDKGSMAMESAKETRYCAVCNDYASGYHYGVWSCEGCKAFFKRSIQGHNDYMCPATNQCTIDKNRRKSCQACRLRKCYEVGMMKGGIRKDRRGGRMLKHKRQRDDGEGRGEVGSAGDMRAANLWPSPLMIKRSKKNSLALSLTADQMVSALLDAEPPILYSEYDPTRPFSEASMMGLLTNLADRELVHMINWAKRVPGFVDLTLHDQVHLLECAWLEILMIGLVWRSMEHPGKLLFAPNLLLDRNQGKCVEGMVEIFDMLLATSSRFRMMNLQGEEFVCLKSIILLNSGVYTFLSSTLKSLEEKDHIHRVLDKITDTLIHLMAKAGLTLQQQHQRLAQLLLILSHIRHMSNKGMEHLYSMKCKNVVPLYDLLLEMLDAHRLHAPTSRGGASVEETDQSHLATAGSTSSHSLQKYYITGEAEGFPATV
T1 sequence (P51449 269-508 limits assumed): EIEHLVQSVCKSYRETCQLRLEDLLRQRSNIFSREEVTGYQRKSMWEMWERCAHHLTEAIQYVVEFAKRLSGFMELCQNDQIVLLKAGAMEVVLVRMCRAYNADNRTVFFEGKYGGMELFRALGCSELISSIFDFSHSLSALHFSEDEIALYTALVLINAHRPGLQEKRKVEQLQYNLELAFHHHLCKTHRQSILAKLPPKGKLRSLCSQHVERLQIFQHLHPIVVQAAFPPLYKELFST
Sequence of RXRb (P28702 296-533 limits assumed): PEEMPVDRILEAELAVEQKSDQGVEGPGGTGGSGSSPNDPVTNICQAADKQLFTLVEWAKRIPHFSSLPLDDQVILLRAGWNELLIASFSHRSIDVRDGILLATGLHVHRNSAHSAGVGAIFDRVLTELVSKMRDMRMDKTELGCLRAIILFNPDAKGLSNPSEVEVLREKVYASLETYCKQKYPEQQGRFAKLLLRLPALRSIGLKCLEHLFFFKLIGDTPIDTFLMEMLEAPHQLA
Sequence of GR (P04150 whole entry): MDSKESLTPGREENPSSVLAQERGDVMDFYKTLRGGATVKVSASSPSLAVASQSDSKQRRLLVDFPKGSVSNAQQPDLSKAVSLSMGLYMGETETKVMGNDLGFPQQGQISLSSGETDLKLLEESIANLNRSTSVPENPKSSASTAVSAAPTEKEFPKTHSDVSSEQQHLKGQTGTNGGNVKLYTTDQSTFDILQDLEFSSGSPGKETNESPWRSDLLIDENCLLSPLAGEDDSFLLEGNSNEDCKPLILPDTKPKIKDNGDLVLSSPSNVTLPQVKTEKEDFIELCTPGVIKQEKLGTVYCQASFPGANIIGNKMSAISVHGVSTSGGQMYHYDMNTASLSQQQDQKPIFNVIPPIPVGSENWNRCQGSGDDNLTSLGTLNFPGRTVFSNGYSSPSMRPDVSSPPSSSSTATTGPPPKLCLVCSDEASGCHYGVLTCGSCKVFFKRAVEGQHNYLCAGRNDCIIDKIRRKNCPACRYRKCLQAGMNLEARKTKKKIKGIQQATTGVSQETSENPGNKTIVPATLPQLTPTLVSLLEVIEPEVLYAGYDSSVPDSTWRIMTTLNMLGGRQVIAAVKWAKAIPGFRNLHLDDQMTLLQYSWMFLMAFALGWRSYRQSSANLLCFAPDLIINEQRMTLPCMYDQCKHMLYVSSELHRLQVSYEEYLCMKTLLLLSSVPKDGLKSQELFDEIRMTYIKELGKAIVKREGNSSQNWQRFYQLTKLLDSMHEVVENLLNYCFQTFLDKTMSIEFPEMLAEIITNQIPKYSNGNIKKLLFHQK
Sequence of RXRa (P19793 227-462 limits assumed): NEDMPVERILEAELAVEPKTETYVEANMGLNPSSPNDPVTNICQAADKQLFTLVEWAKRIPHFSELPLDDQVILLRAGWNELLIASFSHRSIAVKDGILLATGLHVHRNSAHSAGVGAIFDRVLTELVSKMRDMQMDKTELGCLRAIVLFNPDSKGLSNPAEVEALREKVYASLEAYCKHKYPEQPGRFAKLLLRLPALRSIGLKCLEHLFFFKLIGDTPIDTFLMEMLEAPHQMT
Sequence of FXR (Q96RI1 262-486 limits assumed): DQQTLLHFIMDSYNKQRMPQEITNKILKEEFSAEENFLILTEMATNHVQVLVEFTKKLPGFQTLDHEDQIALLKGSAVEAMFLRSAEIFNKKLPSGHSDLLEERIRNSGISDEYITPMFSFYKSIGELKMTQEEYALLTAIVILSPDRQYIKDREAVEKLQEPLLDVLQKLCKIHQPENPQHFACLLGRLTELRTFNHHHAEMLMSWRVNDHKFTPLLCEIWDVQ
Sequence of AhR (P35869 275-386 limits assumed): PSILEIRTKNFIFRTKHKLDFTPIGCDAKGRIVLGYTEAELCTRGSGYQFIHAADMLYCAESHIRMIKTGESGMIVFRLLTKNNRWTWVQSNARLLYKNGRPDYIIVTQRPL

- IC50 ([1]; human MSCs under adipogenic conditions, data not shown): 5.4 µM
- IC50 ([2]; human MSCs, data not shown): 1 µM
Structure (SMILES): O=C(Nc1ccccc1)c1cc([N+](=O)[O-])ccc1Cl [GW9662, reference compound]

- effect on interaction of RORγt-LBD with cofactor peptide [3]: weak activator
Structure (SMILES): CC(C)CCC[C@@H](C)[C@H]1CC[C@H]2[C@@H]3CC=C4C[C@@H](O)CC[C@]4(C)[C@H]3CC[C@]12C [Cholesterol, cholesterol, reference compound]

Structure (SMILES): O=C(O)c1ccc(-c2nn(C(=O)c3c(Cl)cccc3C(F)(F)F)c3cccc(F)c23)c(F)c1 [MRL-299]
- EC50 [4]: > 30 µM
- IC50 [4]: 20 µM
- EC50 [5]: > 30 µM
- IC50 ([1]; Homo sapiens, Mesenchymal stem cells): ~50 µM
- EC50 [6]: > 30 µM
- IC50 [6]: 28 µM
- EC50 [7]: > 30 µM
- EC50 [8]: > 30 µM
- IC50 [8]: 28 µM
- EC50 [9]: > 30 µM
- IC50 [9]: > 30 µM
- EC50 [10]: > 30 µM
- IC50 [10]: 21.5 µM
- EC50 [11]: > 30 µM
- IC50 [11]: 7.42 µM
- EC50 [12]: > 30 µM
- IC50 [12]: 23.2 µM
- EC50 [13]: > 30 µM
- EC50 [14]: > 30 µM
- IC50 [14]: 18.5 µM
- EC50 [15]: > 30 µM
- IC50 [15]: > 30 µM
- EC50 [16]: > 30 µM
- IC50 [16]: 19.1 µM
- induction of CD36 gene expression [17]: no induction
- induction of FABP4 gene expression [17]: no induction
- EC50 [18]: 0.686 µM
- IC50 [18]: 0.517 µM
- EC50 [19]: > 30 µM
- IC50 [19]: 10.8 µM
- EC50 [20]: > 30 µM
- IC50 [20]: 13.6 µM
- EC50 [21]: > 30 µM
- IC50 [21]: 4.49 µM
- EC50 [22]: > 30 µM
- IC50 [23]: 16.7 µM
- EC50 [24]: 0.364 µM
- IC50 [24]: 3.11 µM
- agonist maximum, % of ATRA max ([24]; RARg, relative to ATRA control): 20%
- EC50 [25]: > 30 µM
- EC50 [26]: > 30 µM
- IC50 [26]: > 30 µM
- EC50 [27]: > 30 µM
- IC50 [27]: 5.73 µM
- EC50 [28]: > 30 µM
- IC50 [28]: 12 µM
- EC50 [29]: 4.62 µM
- IC50 [29]: > 30 µM
- agonist maximum, % of rifampicin max ([29]; PXR, relative to rifampicin control): 63%
- EC50 [30]: > 30 µM
- IC50 [30]: 12.3 µM
- IC50 ([2]; Homo sapiens): ~30 µM
- IC50 [31]: 0.0094 ± 0.0052 µM

Structure (SMILES): O=C(O)c1ccc(-c2nn(C(=O)c3ccccc3C(F)(F)F)c3ccccc23)cc1 [MRL-058]
- IL17a mRNA levels [32]: significantly reduced

Structure (SMILES): CN(CCOc1ccc(CC2SC(=O)NC2=O)cc1)c1ccccn1 (stereo not drawn) [Rosiglitazone, rosiglitazone, reference compound]
- induction of CD36 gene expression [17]: 3 fold
- induction of FABP4 gene expression [17]: 2 fold

- IC50 ([3]; read-out: IC50, inhibition of coactivator binding (cofactor peptide recruitment)): 0.28 ± 0.117 µM
Structure (SMILES): O=C(O)c1ccc(-c2nn(C(=O)c3ccccc3)c3ccccc23)cc1 [MRL-003]
- IL17a mRNA levels [32]: did not reduce

Structure (SMILES): O=C(O)c1ccc(-c2nn(C(=O)c3c(Cl)cccc3C(F)(F)F)c3ccccc23)cc1 [MRL-871]
- IL17a mRNA levels [32]: significantly reduced
- IC50 [31]: 0.0396 ± 0.018 µM
